Data: patent US20110053916A1 (Vertex Pharmaceuticals Incorporated, priority 2009, published 2011)

biological target: T1, PknB (Mycobacterium tuberculosis, UniProt P9WI81); test: biochemical; parameters: species or system M. tuberculosis; conditions: 3 nM PknB, 6 uM GarA, 3 μM ATP, 30 min; competitive tight-binding fit; several symbols in a cell = repeat determinations
T1 construct: made in house
T1 sequence (P9WI81 whole entry): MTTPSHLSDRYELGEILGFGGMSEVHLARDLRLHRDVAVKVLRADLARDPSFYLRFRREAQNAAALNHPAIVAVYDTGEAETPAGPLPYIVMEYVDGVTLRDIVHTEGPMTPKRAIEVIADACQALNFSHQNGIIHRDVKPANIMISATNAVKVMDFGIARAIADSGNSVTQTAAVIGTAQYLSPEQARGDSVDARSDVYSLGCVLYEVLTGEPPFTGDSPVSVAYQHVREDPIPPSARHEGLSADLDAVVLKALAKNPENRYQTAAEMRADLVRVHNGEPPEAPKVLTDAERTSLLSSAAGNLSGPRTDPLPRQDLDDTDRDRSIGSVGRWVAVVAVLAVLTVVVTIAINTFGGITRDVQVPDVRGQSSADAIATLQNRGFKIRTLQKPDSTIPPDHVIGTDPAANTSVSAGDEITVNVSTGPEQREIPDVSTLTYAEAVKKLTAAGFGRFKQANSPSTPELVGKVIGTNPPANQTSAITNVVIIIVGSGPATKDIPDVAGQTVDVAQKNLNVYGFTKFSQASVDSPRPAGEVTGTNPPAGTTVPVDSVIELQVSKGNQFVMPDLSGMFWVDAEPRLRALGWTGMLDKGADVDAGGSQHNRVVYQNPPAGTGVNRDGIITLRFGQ

CS(=O)(=O)c1ccc(-c2ncc(F)c(Nc3cc(C4CC4)[nH]n3)n2)cc1 [Compound 16, N-(5-cyclopropyl-1H-pyrazol-3-yl)-5-fluoro-2-(4-methylsulfonylphenyl)-pyrimidin-4-amine] was tested, and the “Ki Values” was “A*, A”.
CS(=O)(=O)c1ccc(-c2ncc(Cl)c(Nc3cc(C4CC4)[nH]n3)n2)cc1 [Compound 23, 5-chloro-N-(5-cyclopropyl-1H-pyrazol-3-yl)-2-(4-methylsulfonylphenyl)-pyrimidin-4-amine] was tested, and the “Ki Values” was “A, B**”.
With Cc1cnc(-c2cccs2)nc1Nc1cc(C2CC2)[nH]n1 [Compound 38, N-(5-cyclopropyl-1H-pyrazol-3-yl)-5-methyl-2-(thiophen-2-yl)pyrimidin-4-amine] the “Ki Values” was “A*, A”.
For CCc1cnc(N2CCC(N3CCCCC3)CC2)nc1Nc1cc(C2CC2)[nH]n1 [Compound 44, N-(5-cyclopropyl-1H-pyrazol-3-yl)-5-ethyl-2-[4-(1-piperidyl)-1-piperidyl]-pyrimidin-4-amine], the “Ki Values” was “C, D”.
With CCc1cnc(N2CCCCC2)nc1Nc1cc(C2CC2)[nH]n1 [Compound 45, N-(5-cyclopropyl-1H-pyrazol-3-yl)-5-ethyl-2-(1-piperidyl)pyrimidin-4-amine] the “Ki Values” was “C, D”.
For NS(=O)(=O)c1cc(-c2ncc(Cl)c(Nc3cc(C4CC4)[nH]n3)n2)ccc1Cl [Compound 58, 2-chloro-5-[5-chloro-4-[(5-cyclopropyl-1H-pyrazol-3-yl)amino]-pyrimidin-2-yl]-benzenesulfonamide], the “Ki Values” was “B, C, C”.
N#CCc1ccc(Nc2ncc(Cl)c(Nc3cc(C4CC4)[nH]n3)n2)cc1 [Compound 59, 2-[4-[[5-chloro-4-[(5-cyclopropyl-1H-pyrazol-3-yl)amino]-pyrimidin-2-yl]amino]phenyl]acetonitrile] was tested, and the “Ki Values” was “B**, B*, B*”.

same assay, conditions: 3 nM PknB, 6 uM GarA, 3 μM ATP, 30 min; competitive tight-binding fit; several symbols in a cell = repeat determinations; read-out: Ki Values

N#CCc1ccc(-c2nccc(Nc3cc(C4CC4)[nH]n3)n2)cc1 [Compound 17, 2-(4-(4-(5-cyclopropyl-1H-pyrazol-3-ylamino)pyrimidin-2-yl)phenyl)acetonitrile] and Cc1cnc(-c2ccc(CC#N)cc2)nc1Nc1cc(C2CC2)[nH]n1 [Compound 24, 2-(4-(4-(5-cyclopropyl-1H-pyrazol-3-ylamino)-5-methylpyrimidin-2-yl)phenyl)acetonitrile] fall in the same range of Ki: 10 to 50 nM for the first, 10 to 50 nM for the second.

Compared with Cc1cnc(-c2ccc(S(C)(=O)=O)cc2)nc1Nc1cc(C2CC2)[nH]n1 [Compound 20, N-(5-cyclopropyl-1H-pyrazol-3-yl)-5-methyl-2-(4-(methylsulfonyl)phenyl)pyrimidin-4-amine], Cc1cnc(-c2cccc(S(N)(=O)=O)c2)nc1Nc1cc(C2CC2)[nH]n1 [Compound 31, 3-[4-[(5-cyclopropyl-1H-pyrazol-3-yl)amino]-5-methyl-pyrimidin-2-yl]benzenesulfonamide] is lower in Ki: 100 to 500 nM for the first, 10 to 50 nM for the second. The second binds more tightly here.

Compared with OCc1ccc(-c2nccc(Nc3cc(C4CC4)[nH]n3)n2)s1 [Compound 22, (5-(4-(5-cyclopropyl-1H-pyrazol-3-ylamino)pyrimidin-2-yl)thiophen-2-yl)methanol], NS(=O)(=O)c1ccc(-c2nccc(Nc3cc(C4CC4)[nH]n3)n2)s1 [Compound 50, 5-(4-(5-cyclopropyl-1H-pyrazol-3-ylamino)pyrimidin-2-yl)thiophene-2-sulfonamide] is lower in Ki: 10 to 50 nM for the first, 1 to 10 nM for the second. The second binds more tightly here.

First: c1csc(-c2nccc(Nc3cc(C4CC4)[nH]n3)n2)c1 [Compound 27, N-(5-cyclopropyl-1H-pyrazol-3-yl)-2-(thiophen-2-yl)pyrimidin-4-amine]
Second: Clc1cnc(-c2cccs2)nc1Nc1cc(C2CC2)[nH]n1 [Compound 29, 5-chloro-N-(5-cyclopropyl-1H-pyrazol-3-yl)-2-(thiophen-2-yl)pyrimidin-4-amine]
The Ki of the first is lower: 10 to 50 nM for the first, 50 to 100 nM for the second.

NS(=O)(=O)c1cccc(-c2nccc(Nc3cc(C4CC4)[nH]n3)n2)c1 [Compound 28, 3-[4-[(5-cyclopropyl-1H-pyrazol-3-yl)amino]pyrimidin-2-yl]benzenesulfonamide] and NS(=O)(=O)c1cccc(-c2ncc(Cl)c(Nc3cc(C4CC4)[nH]n3)n2)c1 [Compound 30, 3-[5-chloro-4-[(5-cyclopropyl-1H-pyrazol-3-yl)amino]-pyrimidin-2-yl]benzenesulfonamide] fall in the same range of Ki: 10 to 50 nM for the first, 10 to 50 nM for the second.

NC(=O)c1cc(-c2ncc(F)c(Nc3cc(C4CC4)[nH]n3)n2)ccc1Cl [Compound 34, 2-chloro-5-[4-[(5-cyclopropyl-1H-pyrazol-3-yl)amino]-5-fluoro-pyrimidin-2-yl]-benzamide] and NS(=O)(=O)c1cccc(-c2ncc(F)c(Nc3cc(C4CC4)[nH]n3)n2)c1 [Compound 35, 3-[4-[(5-cyclopropyl-1H-pyrazol-3-yl)amino]-5-fluoro-pyrimidin-2-yl]benzenesulfonamide] fall in the same range of Ki: 10 to 50 nM for the first, 10 to 50 nM for the second.

Compared with COC/C=C/c1cnc(-c2ccccc2)nc1Nc1cc(C2CC2)[nH]n1 [Compound 39, (E)-N-(5-cyclopropyl-1H-pyrazol-3-yl)-5-(3-methoxyprop-1-enyl)-2-phenylpyrimidin-4-amine], Oc1cnc(-c2ccccc2)nc1Nc1cc(C2CC2)[nH]n1 [Compound 55, 4-(5-cyclopropyl-1H-pyrazol-3-ylamino)-2-phenylpyrimidin-5-ol] is higher in Ki: 500 to 1000 nM for the first, 1000 to 2000 nM for the second.

Cc1cnc(-c2ccc(S(N)(=O)=O)s2)nc1Nc1cc(C2CC2)[nH]n1 [Compound 40, 5-(4-(5-cyclopropyl-1H-pyrazol-3-ylamino)-5-methylpyrimidin-2-yl)thiophene-2-sulfonamide] and NS(=O)(=O)c1ccc(-c2ncc(Cl)c(Nc3cc(C4CC4)[nH]n3)n2)s1 [Compound 42, 5-(5-chloro-4-(5-cyclopropyl-1H-pyrazol-3-ylamino)pyrimidin-2-yl)thiophene-2-sulfonamide] fall in the same range of Ki: 1 to 10 nM for the first, 1 to 10 nM for the second.

CCc1cnc(N2CCN(C)CC2)nc1Nc1cc(C2CC2)[nH]n1 [Compound 46, N-(5-cyclopropyl-1H-pyrazol-3-yl)-5-ethyl-2-(4-methylpiperazin-1-yl)-pyrimidin-4-amine] and CN1CCN(c2nccc(Nc3cc(C4CC4)[nH]n3)n2)CC1 [Compound 47, N-(5-cyclopropyl-1H-pyrazol-3-yl)-2-(4-methylpiperazin-1-yl)-pyrimidin-4-amine] cannot be ordered by Ki: over 4000 nM for the first, over 4000 nM for the second.

CNS(=O)(=O)c1ccc(-c2nccc(Nc3cc(C4CC4)[nH]n3)n2)s1 [Compound 48] and NS(=O)(=O)c1ccc(-c2ncc(F)c(Nc3cc(C4CC4)[nH]n3)n2)s1 [Compound 52, 5-(4-(5-cyclopropyl-1H-pyrazol-3-ylamino)-5-fluoropyrimidin-2-yl)thiophene-2-sulfonamide] fall in the same range of Ki: 1 to 10 nM for the first, 1 to 10 nM for the second.

Compared with COC(=O)CC1c2cnc(-c3ccccc3)nc2Nc2cc(C3CC3)nn21 (stereo not shown) [Compound 49, methyl 2-(cyclopropyl-phenyl-BLAHyl)acetate], O=C(O)c1ccc(Nc2nccc(Nc3cc(C4CC4)n[nH]3)n2)cc1 [Compound 57, 4-[[4-[(5-cyclopropyl-2H-pyrazol-3-yl)amino]pyrimidin-2-yl]amino]benzoic acid] is lower in Ki: over 4000 nM for the first, 100 to 500 nM for the second.

NS(=O)(=O)C/C=C/c1nccc(Nc2cc(C3CC3)[nH]n2)n1 [Compound 54, 3-[4-[(5-cyclopropyl-1H-pyrazol-3-yl)amino]pyrimidin-2-yl]prop-2-ene-1-sulfonamide] and CC(C)(C)NS(=O)(=O)C/C=C/c1nccc(Nc2cc(C3CC3)[nH]n2)n1 [Compound 56, 3-[4-[(5-cyclopropyl-1H-pyrazol-3-yl)amino]pyrimidin-2-yl]-N-tert-butyl-prop-2-ene-1-sulfonamide] fall in the same range of Ki: 1000 to 2000 nM for the first, 1000 to 2000 nM for the second.
